Assays:
[1] = test system: N87 (human gastric carcinoma derived from metastatic liver site); assay: Cytotoxicity assay for payloads (MTS), N87 cells; assay type: cell-based; settings: Homo sapiens, 96 h; N87 cells, incubated with compounds for four days, MTS absorbance 490 nm; read-out: N87 IC50
In short: (§1)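 Cells in RPMI 1640 with 10% FBS exposed to compounds for four days at 10 concentrations in duplicate. Viability read by MTS absorbance at 490 nm after 1.5 h, as % of untreated controls; IC50 from four-parameter logistic fit.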

[2] = test system: HL60 (leukemia); assay: Cytotoxicity assay for payloads (MTS), HL-60 cells; assay type: cell-based; settings: Homo sapiens, 96 h, incubated with compounds for four days, MTS absorbance 490 nm
In short: as §1

Structure (SMILES) | IC50 [1] [nM] | IC50 [2] [nM]
N[C@@H](CCC(=O)N1C[C@H]2C[C@@]23C1=CC(=O)c1ccccc13)C(=O)N1C[C@H]2C[C@@]23C1=CC(=O)c1ccccc13 [Compound 167, (2S)-2-amino-1,5-bis[(1aS,9bR)-5-oxo-1a,2-dihydro-1H-benzo[e]cyclopropa[c]indol-3(5H)-yl]pentane-1,5-dione] | ≥ 10 | 1.45
Cc1c[nH]c2c(O)cc3c(c12)[C@H](CCl)CN3C(=O)CN(CC(=O)N1C[C@@H](CCl)c2c1cc(O)c1[nH]cc(C)c21)C(=O)OCC1c2ccccc2-c2ccccc21 [Compound 169, 9H-fluoren-9-ylmethyl bis{2-[(1S)-1-(chloromethyl)-5-hydroxy-8-methyl-1,6-dihydropyrrolo[3,2-e]indol-3(2H)-yl]-2-oxoethyl}carbamate] | 9.82 | 0.388
O=C(c1ccc(C(=O)N2C[C@@H](CCl)c3c2cc(OP(=O)(O)O)c2ccccc32)s1)N1C[C@@H](CCl)c2c1cc(O)c1ccccc21 [Compound 171, (1S)-1-(chloromethyl)-3-[(5-{[(1S)-1-(chloromethyl)-5-hydroxy-1,2-dihydro-3H-benzo[e]indol-3-yl]carbonyl}thiophen-2-yl)carbonyl]-2,3-dihydro-1H-benzo[e]indol-5-yl dihydrogen phosphate] | 1.55 | 0.131
O=C(OCC1c2ccccc2-c2ccccc21)N(CC(=O)N1C[C@@H](CCl)c2c1cc(O)c1ccccc21)CC(=O)N1C[C@@H](CCl)c2c1cc(O)c1ccccc21 [Compound 172, 9H-fluoren-9-ylmethyl bis{2-[(1S)-1-(chloromethyl)-5-hydroxy-1,2-dihydro-3H-benzo[e]indol-3-yl]-2-oxoethyl}carbamate] | 13.8 | 0.474
O=C(CNCC(=O)N1C[C@@H](CCl)c2c1cc(OP(=O)(O)O)c1ccccc21)N1C[C@@H](CCl)c2c1cc(OP(=O)(O)O)c1ccccc21 [Compound 173, iminobis[(1-oxoethane-2,1-diyl)(1S)-1-(chloromethyl)-1,2-dihydro-3H-benzo[e]indole-3,5-diyl] bis[dihydrogen (phosphate)]] | 13.1 | 0.169
O=C([C@@H]1CNC[C@H](C(=O)N2C[C@@H](CCl)c3c2cc(O)c2ccccc32)C1)N1C[C@@H](CCl)c2c1cc(O)c1ccccc21 [Compound 174, (3R,5S)-piperidine-3,5-diylbis{[(1S)-1-(chloromethyl)-5-hydroxy-1,2-dihydro-3H-benzo[e]indol-3-yl]methanone}] | 87.9 | 1.97
CC(=O)Oc1cc2c(c3ccccc13)[C@H](CCl)CN2C(=O)c1ccc(C(=O)N2C[C@@H](CCl)c3c2cc(OC(C)=O)c2ccccc32)cc1 [Compound 176, benzene-1,4-diylbis[carbonyl(1S)-1-(chloromethyl)-1,2-dihydro-3H-benzo[e]indole-3,5-diyl] diacetate] | 26.4 | 0.199
CC(=O)Oc1cc2c(c3ccccc13)[C@H](CCl)CN2C(=O)Cc1cccc(CC(=O)N2C[C@@H](CCl)c3c2cc(OC(C)=O)c2ccccc32)c1 [Compound 177, benzene-1,3-diylbis[(1-oxoethane-2,1-diyl)(1S)-1-(chloromethyl)-1,2-dihydro-3H-benzo[e]indole-3,5-diyl] diacetate] | 2.12 | 0.196
CC(=O)Oc1cc2c(c3ccccc13)[C@H](CCl)CN2C(=O)Cc1cc(CC(=O)N2C[C@@H](CCl)c3c2cc(OC(C)=O)c2ccccc32)cc([N+](=O)[O-])c1 [Compound 178, (5-nitrobenzene-1,3-diyl)bis[(1-oxoethane-2,1-diyl)(1S)-1-(chloromethyl)-1,2-dihydro-3H-benzo[e]indole-3,5-diyl] diacetate] | 0.484 | 0.036
O=C(O)[C@H]1O[C@@H](Oc2cc3c(c4ccccc24)[C@H](CCl)CN3C(=O)CC23CC(C(=O)N4C[C@@H](CCl)c5c4cc(O)c4ccccc54)(C2)C3)[C@H](O)[C@@H](O)[C@@H]1O [Compound 179, (1S)-1-(chloromethyl)-3-[(3-{[(1S)-1-(chloromethyl)-5-hydroxy-1,2-dihydro-3H-benzo[e]indol-3-yl]carbonyl}bicyclo[1.1.1]pent-1-yl)acetyl]-2,3-dihydro-1H-benzo[e]indol-5-yl beta-D-glucopyranosiduronic acid] | 173 | 14.3
Cc1c[nH]c2c(O)cc3c(c12)[C@H](CCl)CN3C(=O)C12CC(C(=O)N3C[C@@H](CCl)c4c3cc(N)c3ccccc43)(C1)C2 [Compound 180, [(1S)-5-amino-1-(chloromethyl)-1,2-dihydro-3H-benzo[e]indol-3-yl](3-{[(1S)-1-(chloromethyl)-5-hydroxy-8-methyl-1,6-dihydropyrrolo[3,2-e]indol-3(2H)-yl]carbonyl}bicyclo[1.1.1]pent-1-yl)methanone] | 0.425 | 0.048

— US10086085B2, “Bifunctional cytotoxic agents” (priority 2014, dated 2018)
